Laboratory results as given in ChEMBL document CHEMBL5357018, “Discovery of Malarial Threonyl tRNA Synthetase Inhibitors by Screening of a Focused Fragment Library” (ACS Med Chem Lett, 2024).

Biological target: T1, threonine--tRNA ligase (Plasmodium falciparum, UniProt Q8IIA4)
T1 sequence (Q8IIA4 whole entry): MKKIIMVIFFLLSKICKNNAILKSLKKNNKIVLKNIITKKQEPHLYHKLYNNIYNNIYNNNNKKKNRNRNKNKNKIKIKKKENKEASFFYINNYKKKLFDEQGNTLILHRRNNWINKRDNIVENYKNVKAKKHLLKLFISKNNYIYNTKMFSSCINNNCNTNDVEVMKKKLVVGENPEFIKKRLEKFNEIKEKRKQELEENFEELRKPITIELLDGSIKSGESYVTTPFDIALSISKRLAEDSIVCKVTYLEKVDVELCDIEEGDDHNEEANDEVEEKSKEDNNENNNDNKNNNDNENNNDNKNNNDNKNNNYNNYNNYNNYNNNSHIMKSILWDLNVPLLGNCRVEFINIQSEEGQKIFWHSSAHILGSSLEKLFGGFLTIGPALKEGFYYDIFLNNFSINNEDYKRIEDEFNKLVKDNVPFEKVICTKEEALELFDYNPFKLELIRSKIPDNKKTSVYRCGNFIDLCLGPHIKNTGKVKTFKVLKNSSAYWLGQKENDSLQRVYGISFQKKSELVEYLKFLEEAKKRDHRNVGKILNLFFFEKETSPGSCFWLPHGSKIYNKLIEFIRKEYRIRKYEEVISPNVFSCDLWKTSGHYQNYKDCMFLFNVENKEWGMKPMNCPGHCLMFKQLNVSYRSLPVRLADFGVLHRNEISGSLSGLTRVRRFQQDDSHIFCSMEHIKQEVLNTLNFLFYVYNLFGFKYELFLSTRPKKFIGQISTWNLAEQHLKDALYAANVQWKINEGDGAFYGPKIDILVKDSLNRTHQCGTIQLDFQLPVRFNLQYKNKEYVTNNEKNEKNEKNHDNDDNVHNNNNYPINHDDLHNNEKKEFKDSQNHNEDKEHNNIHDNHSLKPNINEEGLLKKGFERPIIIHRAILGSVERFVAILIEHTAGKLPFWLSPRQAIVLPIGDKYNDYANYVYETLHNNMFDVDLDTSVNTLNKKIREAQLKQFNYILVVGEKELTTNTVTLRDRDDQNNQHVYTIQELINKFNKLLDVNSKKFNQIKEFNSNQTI
Test: Inhibition of Plasmodium falciparum Threonyl tRNA synthetase

| IC50 | SMILES |
| --- | --- |
| 160 nM | C[C@@H](O)[C@H](N)C(=O)NS(=O)(=O)OC[C@H]1O[C@@H](n2cnc3c(N)ncnc32)[C@H](O)[C@@H]1O |
| 57 nM | C[C@@H](O)[C@H](N)C(=O)NS(=O)(=O)/C=C/c1cccc(-c2cc(N)ncn2)c1 |
| 33000 nM | C[C@@H](O)[C@H](N)C(=O)NS(=O)(=O)/C=C/c1ccccc1 |
| 440 nM | C[C@@H](O)[C@H](N)C(=O)NP(=O)(O)OC[C@@H]1C[C@H](O)[C@H](n2cnc3c(N)ncnc32)O1 |

| SMILES | IC50 |
| --- | --- |
| C[C@@H]1C[C@H](C)C[C@H](C)[C@@H](O)CC(=O)O[C@H]([C@@H]2CCC[C@H]2C(=O)O)C/C=C/C=C(/C#N)[C@H](O)[C@@H](C)C1 [BORRELIDIN] | 43 nM |

Biological target: T1, threonine--tRNA ligase

| SMILES | Ki |
| --- | --- |
| C[C@@H]1C[C@H](C)C[C@H](C)[C@@H](O)CC(=O)O[C@H]([C@@H]2CCC[C@H]2C(=O)O)C/C=C/C=C(/C#N)[C@H](O)[C@@H](C)C1 [BORRELIDIN] | 160 nM |

Biological target: T1, threonine--tRNA ligase
Remark: another data set of the same source
Description: Inhibition of 6xHis-tag recombinant Plasmodium falciparum threonyl tRNA synthetase expressed in Escherichia using L-threonine and total tRNA by luminescence based assay

| IC50 | SMILES |
| --- | --- |
| 51000 nM | C[C@@H](O)[C@H](N)C(=O)NS(=O)(=O)Oc1ccccc1 |
| 100 nM | C[C@@H](O)[C@H](N)C(=O)NS(=O)(=O)c1nc2cc(-c3cc(N)ncn3)ccc2s1 |
| 36000 nM | C[C@@H](O)[C@H](N)C(=O)NS(=O)(=O)Oc1cccc2ccccc12 |
| 71000 nM | C[C@@H](O)[C@H](N)C(=O)NS(=O)(=O)c1nc2ccccc2s1 |
| 55000 nM | C[C@@H](O)[C@H](N)C(=O)NS(=O)(=O)Oc1cccc2cccnc12 |
| 700 nM | C[C@@H](O)[C@H](N)C(=O)NS(=O)(=O)Oc1cccc2nn(-c3cc(N)ncn3)cc12 |
| 800 nM | C[C@@H](O)[C@H](N)C(=O)NS(=O)(=O)Oc1ccc(-c2cc(N)ncn2)cc1 |
| 30000 nM | C[C@@H](O)[C@H](N)C(=O)NS(=O)(=O)Oc1ccc2ccccc2c1 |
